# Data: patent publication US20240067651A1 (Biohaven Therapeutics Ltd., priority 2019, published 2024)
# Tests used:
# [1] = Stability in Simulated Intestinal Fluid (SIF); format: in vitro ADME; parameters: key: % parent compound remaining relative to 0-minute sample
# Summary of the method: (§1)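 Percent parent compound remaining, by LC-MS/MS against the 0-minute sample, is reported after incubation at 2 μg/mL (final) in pepsin-containing SGF at pH 1.2 or pancreatin-containing SIF at pH 6.8. Incubations run at 37° C for up to 60 minutes.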
# [2] = Caco-2 Permeability Assay; format: in vitro ADME, human; conditions: human
# Summary of the method: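 Caco-2 monolayers cultured 21 days (TEER >600 […]); test article at 10 μM in HBSS/HEPES pH 7.4 transport medium, dosed apical or basolateral, ±Pgp inhibitor. Incubated 90 min at 37 °C; both compartments quantified by LC-MS/MS. Papp (A→B, B→A), efflux ratio and % recovery calculated.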
# [3] = Stability in Simulated Gastric Fluid (SGF); format: in vitro ADME; parameters: key: % parent compound remaining relative to 0-minute sample
# Summary of the method: as §1
# Plasma Stability = format: in vitro ADME, human
# Summary of the method: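 Compounds incubated at 1 μM in fresh human plasma for 1 hour at 37° C, then protein-precipitated with acetonitrile/formic acid containing internal standard. Remaining parent measured by LC-MS/MS in triplicate, expressed as percent of control remaining.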
# [4] = simulated intestinal fluid, at 1 h
# [5] = Caco-2, pH 7.4, Caco-2 monolayer
# [6] = simulated gastric fluid, at 1 h
# [7] = simulated intestinal fluid, after 1 h
# [8] = simulated gastric fluid, after 1 h
# [9] = simulated intestinal fluid, @ 1 h
"Papp at 90 min, 10 µM [2, 5] [×10⁻⁶ cm/s]",Structure (SMILES),SIF ([1]; % remaining @ 1 h) [% @ 1 h],"Papp at 90 min, 10 µM ([2]; Caco-2, pH 7.4) [×10⁻⁶ cm/s]",SGF ([3]; % remaining @ 1 h) [% @ 1 h],human Plasma stability (Plasma Stability; % remaining @ 1 h) [% @ 1 h],also measured
23.5,Cc1ccc(N(C)C(=O)OCSc2nc(=O)c3[nH]ccc3n2CCOC(C)C)cc1 [Example 248],–,–,–,–,"SIF [1, 4]: 98% remaining; SGF [3, 6]: 99% remaining; human Plasma stability (Plasma Stability; human plasma, at 1 h): 96% remaining"
28.4,CC(C)OCCn1c(SCOC(=O)N(C)c2ccccc2Cl)nc(=O)c2c1ccn2COC(=O)N(C)c1ccccc1Cl [Example 249],–,–,–,–,"SIF [1, 4]: 95% remaining; SGF [3, 6]: 89% remaining; human Plasma stability (Plasma Stability; human plasma, at 1 h): 98% remaining"
–,"CC(C)OCCn1c(=S)[nH]c(=O)c2c1ccn2COC(=O)CCCCCCCCCCCCCCC(=O)O [Example 255, 16-oxo-16-({4-oxo-1-[2-(propan-2-yloxy)ethyl]-2-sulfanylidene-1H,2H,3H,4H,5H-pyrrolo[3,2-d]pyrimidin-5-yl}methoxy)hexadecanoic acid]",–,–,–,–,"SIF ([1]; % remaining at 1 h, SIF with pancreatin pH 6.8, 2 μg/mL, 37° C.): 2%; Papp at 90 min, 10 µM ([2]; Caco-2, pH 7.4, donor 10 μM, 90 minutes, 37° C., direction not given): 2.72 ×10⁻⁶ cm/s; SGF ([3]; % remaining at 1 h, SGF with pepsin pH 1.2, 2 μg/mL, 37° C.): 95%; human Plasma stability (Plasma Stability; % remaining at 1 h, human plasma, 1 μM, 37° C.): 76%"
0.25,CC(C)OCCn1c(=S)[nH]c(=O)c2c1ccn2COC(=O)CCCCCCCCCCCCCCC(=O)OC(C)C [Example 256],–,–,–,–,"SIF [1, 7]: 9% remaining; SGF [3, 8]: 99% remaining; human Plasma stability (Plasma Stability; human plasma, after 1 h): 88% remaining"
11.7,CC(C)OCCn1c(=S)[nH]c(=O)c2c1ccn2COC(=O)CCCCCCCCCCC(=O)O [Example 261],–,–,–,–,"SIF [1, 7]: 2% remaining; SGF [3, 8]: 99% remaining; human Plasma stability (Plasma Stability; human plasma, after 1 h): 94% remaining"
< 0.214,CC(C)OCCn1c(=S)[nH]c(=O)c2c1ccn2COC(=O)CCCCCCCCCCC(=O)OC(C)C [Example 262],–,–,–,–,"SIF [1, 7]: 2% remaining; SGF [3, 8]: 92% remaining; human Plasma stability (Plasma Stability; human plasma, after 1 h): 41% remaining"
5.78,CC(C)OCCn1c(=S)n(COC(=O)CNC(=O)OC(C)(C)C)c(=O)c2c1ccn2COC(=O)CNC(=O)OC(C)(C)C [Example 283],–,–,–,–,"SIF [1, 9]: 1% @ 1 h; SGF ([3]; simulated gastric fluid, @ 1 h): 82% @ 1 h; human Plasma stability (Plasma Stability; human plasma, @ 1 h): 26% @ 1 h"
1.55,CC(C)OCCn1c(=S)[nH]c(=O)c2c1ccn2COC(=O)CN [Example 284],–,–,–,–,"SIF [1, 9]: 6% @ 1 h; SGF ([3]; simulated gastric fluid, @ 1 h): 100% @ 1 h; human Plasma stability (Plasma Stability; human plasma, @ 1 h): 0% @ 1 h"
–,"CC(C)OCCn1c(=S)n(COC(=O)[C@H](C)N)c(=O)c2c1ccn2COC(=O)[C@H](C)N.O=C(O)C(F)(F)F.O=C(O)C(F)(F)F [Example 289, bis(trifluoroacetic acid) [3-({[(2S)-2-aminopropanoyl]oxy}methyl)-4-oxo-1-[2-(propan-2-yloxy)ethyl]-2-sulfanylidene-1H,2H,3H,4H,5H-pyrrolo[3,2-d]pyrimidin-5-yl]methyl (2S)-2-aminopropanoate]",97,< 0.366,100,39,–
–,"CC(C)OCCn1c(=S)[nH]c(=O)c2c1ccn2COC(=O)[C@@H](C)N.O=C(O)C(F)(F)F [Example 292, trifluoroacetic acid {4-oxo-1-[2-(propan-2-yloxy)ethyl]-2-sulfanylidene-1H,2H,3H,4H,5H-pyrrolo[3,2-d]pyrimidin-5-yl}methyl (2R)-2-aminopropanoate]",7,< 1.06,99,20,–
–,"CC(C)OCCn1c(=S)n(COC(=O)[C@@H](C)N)c(=O)c2c1ccn2COC(=O)[C@@H](C)N.O=C(O)C(F)(F)F.O=C(O)C(F)(F)F [Example 293, bis(trifluoroacetic acid) [3-({[(2R)-2-aminopropanoyl]oxy}methyl)-4-oxo-1-[2-(propan-2-yloxy)ethyl]-2-sulfanylidene-1H,2H,3H,4H,5H-pyrrolo[3,2-d]pyrimidin-5-yl]methyl (2R)-2-aminopropanoate]",29,< 1.06,100,25,–
–,"CC(C)OCCn1c(=S)[nH]c(=O)c2c1ccn2COC(=O)[C@@H](NC(=O)OC(C)(C)C)C(C)C [Example 294, {4-oxo-1-[2-(propan-2-yloxy)ethyl]-2-sulfanylidene-1H,2H,3H,4H,5H-pyrrolo[3,2-d]pyrimidin-5-yl}methyl (2S)-2-{[(tert-butoxy)carbonyl]amino}-3-methylbutanoate]",3,26.8,98,98,–
–,"CC(C)OCCn1c(SCOC(=O)[C@@H](NC(=O)OC(C)(C)C)C(C)C)nc(=O)c2c1ccn2COC(=O)[C@@H](NC(=O)OC(C)(C)C)C(C)C [Example 295, {[5-({[(2S)-2-{[(tert-butoxy)carbonyl]amino}-3-methylbutanoyl]oxy}methyl)-4-oxo-1-[2-(propan-2-yloxy)ethyl]-1H,4H,5H-pyrrolo[3,2-d]pyrimidin-2-yl]sulfanyl}methyl (2S)-2-{[(tert-butoxy)carbonyl]amino}-3-methylbutanoate]",0,17,58,81,–
–,"CC(C)OCCn1c(=S)[nH]c(=O)c2c1ccn2COC(=O)[C@@H](N)C(C)C.O=C(O)C(F)(F)F [Example 296, trifluoroacetic acid {4-oxo-1-[2-(propan-2-yloxy)ethyl]-2-sulfanylidene-1H,2H,3H,4H,5H-pyrrolo[3,2-d]pyrimidin-5-yl}methyl (2S)-2-amino-3-methylbutanoate]",43,1.18,97,12,–
–,"CC(C)OCCn1c(=S)n(COC(=O)[C@@H](N)C(C)C)c(=O)c2c1ccn2COC(=O)[C@@H](N)C(C)C.O=C(O)C(F)(F)F.O=C(O)C(F)(F)F [Example 297, bis(trifluoroacetic acid) [3-({[(2S)-2-amino-3-methylbutanoyl]oxy}methyl)-4-oxo-1-[2-(propan-2-yloxy)ethyl]-2-sulfanylidene-1H,2H,3H,4H,5H-pyrrolo[3,2-d]pyrimidin-5-yl]methyl (2S)-2-amino-3-methylbutanoate]",6,0.462,100,6,–
–,"CC(C)OCCn1c(=S)[nH]c(=O)c2c1ccn2COC(=O)[C@H](NC(=O)OC(C)(C)C)C(C)C [Example 298, {4-oxo-1-[2-(propan-2-yloxy)ethyl]-2-sulfanylidene-1H,2H,3H,4H,5H-pyrrolo[3,2-d]pyrimidin-5-yl}methyl (2R)-2-{[(tert-butoxy)carbonyl]amino}-3-methylbutanoate]",59,33.5,99,99,–
–,"CC(C)OCCn1c(SCOC(=O)[C@H](NC(=O)OC(C)(C)C)C(C)C)nc(=O)c2c1ccn2COC(=O)[C@H](NC(=O)OC(C)(C)C)C(C)C [Example 299, {[5-({[(2R)-2-{[(tert-butoxy)carbonyl]amino}-3-methylbutanoyl]oxy}methyl)-4-oxo-1-[2-(propan-2-yloxy)ethyl]-1H,4H,5H-pyrrolo[3,2-d]pyrimidin-2-yl]sulfanyl}methyl (2R)-2-{[(tert-butoxy)carbonyl]amino}-3-methylbutanoate]",27,15.8,54,94,–
